{"source": "patent US20200368166A1", "about": "“Oral Formulations And Uses Thereof” (Eustralis Pharmaceuticals Limited (Trading As Pressura …, priority 2018, published 2020)", "assay_type_in_all_cases": "physicochemical", "key": {"[1]": {"assay": "Intrinsic dissolution rate (IDR) of compressed disc", "conditions": "200 mg disc, 100 rpm, 37° C.", "procedure": "The IDR is determined by monitoring the drug release rate of a compressed disc of the pre-formulated drug. The IDR is independent of formulation effects and measures the intrinsic properties of the drug and salts as a function of dissolution media effects such as pH and ionic strength. A comparison of the IDR of the drug in water with that obtained in acid and alkali will provide a measure of the drug's ability to control its immediate microenvironment.\nThe IDR was determined by preparing a compressed disc containing 200 mg of Compound (Ia) 2HCl using slow compression. All metal surfaces were pre-lubricated using 4 drops of a 5% w/v solution of stearic acid in chloroform. The solvent was allowed to evaporate, the Compound (Ia) 2HCl added and the sample slowly compressed to 6 tonne. This pressure was maintained for 4 minutes to ensure adequate compression.\nThe discs were then rotated at 100 rpm, 25 mm from the bottom of a 1 litre flat bottomed dissolution vessel containing 1 litre of fluid maintained at 37° C. Manual sampling, with a sampling volume of 5 mL, was employed at 5, 10, 15, 30 and 60 minutes. The amount of drug released was then monitored, by HPLC. Compound (Ia) 2HCl was evaluated in 0.01N HCl (equivalent to gastric pH), phosphate buffer pH 6.8 (intestinal) and distilled water. Refer Table 19 for the percentage of Compound (Ia) 2HCl released."}, "[2]": {"assay": "Bulk and tap density, Carr's index", "procedure": "Measurement of the bulk and tap density provides information on the flow properties and compressibility of the API. The bulk density is measured as the density of the material as it is “poured” or passively filled into a measuring vessel, whereas the tap density is a limiting density attained after “tapping in” the material. A Carr's index greater than 25 is considered to be an indication of poor flowability, and below 15, of good flowability.\nMeasurement of the bulk and tap density provides information on the flow and compressibility of the blend. Bulk and tap density and the subsequent Carr's index were determined on the Formulation 5 blend and the results are given in Table 13."}, "[3]": {"assay": "pH of the API", "from_the_text": "Compound (Ia) HCl (API) is an acidic compound with an approximate pH of 2.5. Compound of Formula (I), in particular compound (Ia) as shown below, is used in all examples, and in particular the 2HCl salt of compound (Ia) (Compound (Ia) 2HCl)."}, "[4]": {"assay": "Solubility in dissolution media (sink conditions test)", "conditions": "37° C.", "procedure": "Selection of the dissolution medium is based on the solubility data and the dose range in order to ensure that sink conditions are met. The term ‘sink conditions’ is defined as the volume of medium at least greater than three times that required to form a saturated solution of drug substance.\nThe sink conditions test was performed as per USP 38 <1092> in the following dissolution medium: • 1. HCl 0.01 N, • 2. Buffer pH 6.8, • 3. Water.\nSolubility determinations were performed on 75 mg of Compound (Ia) HCl dissolved in 250 mL of different media at 37° C. and stirred slightly. The λmax was determined by UV scan between 200-400 nm. Refer to Table 18 for the results."}, "[5]": {"assay": "Particle size distribution (Malvern Mastersizer)", "procedure": "The particle size distribution of compound (Ia) 2HCl (API) was determined using a Malvern Mastersizer. D(0.1) means that 10% of the sample is present as particles smaller than this size. D(0.5) means that 50% of the sample is present as particles smaller than this size. D(0.9) means that 90% of the sample is present as particles smaller than this size."}, "[6]": {"conditions": "API milled prior to GLP tablet manufacture (Table 16)"}}, "note": "Where “and” joins values, the source holds several entries; their conditions need not be identical. Equal values may be shown once.", "data": [{"smiles": "Cc1ccccc1-c1cc(N2CCN(C)CC2)ncc1C(=O)N(C)Cc1cc(C(F)(F)F)cc(C(F)(F)F)c1", "note": "[Compound (Ia) 2HCl]", "values": [{"measurement": "% Released (IDR)", "setting": "[1]; 0.01N 2HCl, t = 0 mins", "result": 0, "unit": "%"}, {"measurement": "% Released (IDR)", "setting": "[1]; 0.01N 2HCl, t = 5 mins", "result": "80% and 70%"}, {"measurement": "% Released (IDR)", "setting": "[1]; 0.01N 2HCl, t = 10 mins", "result": "100% and 97%"}, {"measurement": "% Released (IDR)", "setting": "[1]; 0.01N 2HCl, t = 15 mins", "result": "101% and 98%"}, {"measurement": "% Released (IDR)", "setting": "[1]; 0.01N 2HCl, t = 30 mins", "result": "102% and 99%"}, {"measurement": "% Released (IDR)", "setting": "[1]; 0.01N 2HCl, t = 60 mins", "result": "101% and 98%"}, {"measurement": "% Released (IDR)", "setting": "[1]; Phosphate buffer pH 6.8, t = 0 mins", "result": 0, "unit": "%"}, {"measurement": "% Released (IDR)", "setting": "[1]; Phosphate buffer pH 6.8, t = 5 mins", "result": "68% and 60%"}, {"measurement": "% Released (IDR)", "setting": "[1]; Phosphate buffer pH 6.8, t = 10 mins", "result": "85% and 81%"}, {"measurement": "% Released (IDR)", "setting": "[1]; Phosphate buffer pH 6.8, t = 15 mins", "result": "72% and 83%"}, {"measurement": "% Released (IDR)", "setting": "[1]; Phosphate buffer pH 6.8, t = 30 mins", "result": "73% and 77%"}, {"measurement": "% Released (IDR)", "setting": "[1]; Phosphate buffer pH 6.8, t = 60 mins", "result": "59% and 60%"}, {"measurement": "% Released (IDR)", "setting": "[1]; Water, t = 0 mins", "result": 0, "unit": "%"}, {"measurement": "% Released (IDR)", "setting": "[1]; Water, t = 5 mins", "result": "84% and 71%"}, {"measurement": "% Released (IDR)", "setting": "[1]; Water, t = 10 mins", "result": "101% and 98%"}, {"measurement": "% Released (IDR)", "setting": "[1]; Water, t = 15 mins", "result": "101% and 100%"}, {"measurement": "% Released (IDR)", "setting": "[1]; Water, t = 30 mins", "result": "100% and 102%"}, {"measurement": "% Released (IDR)", "setting": "[1]; Water, t = 60 mins", "result": 100, "unit": "%"}, {"measurement": "Bulk Density", "setting": "[2]", "result": 0.63, "unit": "g/mL"}, {"measurement": "Carr's Index", "setting": "[2]", "result": 24.29, "unit": "%"}, {"measurement": "Tap Density", "setting": "[2]", "result": 0.83, "unit": "g/mL"}, {"measurement": "approximate pH", "setting": "[3]", "result": "~2.5"}, {"measurement": "Appearance", "setting": "[4]; 75 mg in 250 mL 0.01N Hydrochloric Acid (pH 2.0), full cell: Clear, homogeneous, translucent to light yellow.", "result": "Clear,"}, {"measurement": "Appearance", "setting": "[4]; 75 mg in 250 mL Phosphate Buffer (pH 6.8), full cell: White, turbid, heterogeneous liquid.", "result": "White, turbid,"}, {"measurement": "Time to Dissolve", "setting": "[4]; 75 mg in 250 mL Purified Water", "result": 21, "unit": "s"}, {"measurement": "Appearance", "setting": "[4]; 75 mg in 250 mL Purified Water, full cell: Clear, homogeneous, translucent to light yellow.", "result": "Clear,"}, {"measurement": "Particle Size D (0.1)", "setting": "[5]; API before milling (Table 1)", "result": 8.41, "unit": "μm"}, {"measurement": "Particle Size D (0.5)", "setting": "[5]; API before milling (Table 1)", "result": 76.13, "unit": "μm"}, {"measurement": "Particle Size D (0.9)", "setting": "[5]; API before milling (Table 1)", "result": 404.59, "unit": "μm"}, {"measurement": "Particle Size D (0.1)", "setting": "[5]; [6]", "result": 1.2, "unit": "μm"}, {"measurement": "Particle Size D (0.5)", "setting": "[5]; [6]", "result": 38.6, "unit": "μm"}, {"measurement": "Particle Size D (0.9)", "setting": "[5]; [6]", "result": 133.3, "unit": "μm"}]}]}
